From ChEMBL document CHEMBL4706632, “Development of Potential Antitumor Agents from the Scaffolds of Plant-Derived Terpenoid Lactones” (J Med Chem, 2020)
Blank lines part the entries; values can stand above or below the molecule they belong to.

Columns and labels:
[1] = system: MCF7; assay: Cytotoxicity against human MCF-7 cells incubated for 72 hrs by MTT assay; type: functional, cell-based; conditions: MCF7, 72 h
[2] = system: MDA-MB-231; assay: Cytotoxicity against human MDA-MB-231 cells incubated for 72 hrs by MTT assay; type: functional, cell-based; conditions: MDA-MB-231, 72 h
[3] = Inhibition of PAFR in New Zealand rabbit platelets assessed as reduction in PAF-induced platelet aggregation measured within 5 mins by aggregometry analysis; type: tissue-based; conditions: Oryctolagus cuniculus
[4] = system: MCF7; assay: Antiproliferative activity against human MCF7 cells incubated for 48 hrs by [3H]-thymidine incorporation assay; type: functional, cell-based
[5] = system: MDA-MB-435; assay: Antiproliferative activity against human MDA-MB-435 cells incubated for 48 hrs by [3H]-thymidine incorporation assay; type: functional, cell-based
[6] = system: P388; assay: Antiproliferative activity against mouse P388 cells; type: functional, cell-based
[7] = system: PANC-1; assay: Cytotoxicity against human Panc-1 cells incubated for 72 hrs by sulphorhodamine B assay; type: functional, cell-based; conditions: PANC-1, 72 h
[8] = system: SW1990; assay: Antiproliferative activity against human SW1990 incubated for 72 hrs by sulphorhodamine B assay; type: functional, cell-based; conditions: SW1990, 72 h
[9] = system: MDA-MB-231; assay: Cytotoxicity against human MDA-MB-231 cells incubated for 48 hrs by MTT assay; type: functional, cell-based; conditions: MDA-MB-231, 48 h
[10] = system: AGS; assay: Cytotoxicity against human AGS cells incubated for 48 hrs by MTT assay; type: functional, cell-based
[11] = system: HeLa; assay: Cytotoxicity against human HeLa cells incubated for 48 hrs by MTT assay; type: functional, cell-based
[12] = system: HepG2; assay: Cytotoxicity against human HepG2 cells incubated for 48 hrs by MTT assay; type: functional, cell-based; conditions: HepG2, 48 h
[13] = system: PANC-1; assay: Cytotoxicity against human Panc-1 cells incubated for 48 hrs by MTT assay; type: functional, cell-based; conditions: PANC-1, 48 h
[14] = system: A549; assay: Antiproliferative activity against human A549 cells incubated for 72 hrs by Sulforhodamine B assay; type: functional, cell-based; conditions: A549, 72 h
[15] = system: A-431; assay: Antiproliferative activity against human A-431 cells incubated for 72 hrs by Sulforhodamine B assay; type: functional, cell-based; conditions: A-431, 72 h
[16] = Antiproliferative activity against human U87-MG cells incubated for 72 hrs by Sulforhodamine B assay; type: functional, cell-based; conditions: U-87 MG
[17] = system: HCT-116; assay: Cytotoxicity against human HCT116 cells incubated for 72 hrs by ATPlite assay; type: functional, cell-based; conditions: HCT-116, 72 h
[18] = system: WM 266-4; assay: Cytotoxicity against human WM 266-4 cells incubated for 72 hrs by ATPlite assay; type: functional, cell-based; conditions: WM 266-4, 72 h
[19] = system: HCT-116; assay: Antiproliferative activity against human HCT-116 cells incubated for 72 hrs by WST-1 assay; type: functional, cell-based; conditions: HCT-116, 72 h

SMILES: COC(=O)[C@@]12OC[C@]34[C@H]([C@@H](O)[C@@H]1O)[C@@]1(C)C=C(O[C@@H]5O[C@H](CO)[C@@H](O)[C@H](O)[C@H]5O)C(=O)[C@@H](C)[C@@H]1C[C@H]3OC(=O)[C@H](OC(=O)C=C(C)C)[C@@H]24 [BRUCEOSIDE A]
- IC50 [1]: > 50000 nM
- IC50 [2]: > 50000 nM

SMILES: CC(=O)O[C@@H]1C[C@H](O)[C@@]23COC(O)[C@]1(C)[C@@H]2C[C@@H](O)[C@]1(C)[C@@H]3C(=O)C[C@@]2(C)[C@H](c3ccoc3)C[C@H]3O[C@@]312 (stereo not given in full)
- IC50 [6]: < 1.9 nM

SMILES: CC1=CC(=O)[C@@H](O)[C@]2(C)[C@H]3[C@@H](O)[C@H](O)[C@@]4(C)OC[C@@]35[C@@H](C[C@@H]12)OC(=O)[C@H](O)[C@]54O
- IC50 [7]: 1300 nM
- IC50 [8]: 2100 nM
- IC50 [1]: 19000 nM
- IC50 [2]: 24000 nM

SMILES: CC(=O)O[C@@H]1C[C@H](O)[C@@]23COC(O)[C@]1(C)[C@@H]2C[C@@H](O)[C@@]1(C)[C@@H]2C(=O)C[C@@H](c4ccoc4)[C@]2(C)CC(=O)[C@@H]13 (stereo not given in full)
- IC50 [6]: 58000 nM

SMILES: C=C1[C@@H](O)C[C@H]2C(C)(C)[C@@H](Cl)[C@H](Cl)C[C@]2(C)[C@H]1C[C@H](O)[C@H]1CC(=O)NC1=O [DICHLOROLISSOCLIMIDE]
- IC50 [6]: 2 nM

SMILES: C=C[C@H]1OC(=O)C=C2[C@]3(C)[C@H]4[C@H](OC(=O)[C@@]4(C)[C@@H](O)[C@H]4O[C@H]43)[C@H]3O[C@@]231
- IC50 [9]: 660 nM
- IC50 [10]: 550 nM
- IC50 [11]: 620 nM
- IC50 [12]: 3500 nM
- IC50 [13]: 8500 nM

SMILES: C[C@H](CO)[C@H]1OC(=O)C=C2[C@@]13O[C@@H]3[C@H]1OC(=O)[C@@]3(C)[C@@H](O)CC[C@@]2(C)[C@@H]13
- IC50 [14]: 1100 nM
- IC50 [15]: 4600 nM
- IC50 [16]: 4000 nM

SMILES: C/C(=C\[C@@H]1OC(=O)[C@H]([C@@H]2CC[C@]34C[C@]23C=C[C@@H]2[C@@]3(C)CC=C5C[C@@H](c6ccccc6)OC[C@]5(C)[C@@H]3C[C@@H](O)[C@]24C)[C@H]1O)CO
- IC50 [17]: 81 nM
- IC50 [18]: 340 nM

SMILES: CC(=O)O[C@@]1(C)COC2(C1)OC(=O)[C@H]([C@@H]1CC[C@]34C[C@]13C=C[C@@H]1[C@@]3(C)CC=C5C[C@@H](Cc6ccccc6)OC[C@]5(C)[C@@H]3CC(=O)[C@]14C)[C@H]2O (stereo not given in full)
- IC50 [17]: 58 nM
- IC50 [18]: 230 nM

SMILES: CC(=O)OC1OC[C@@]23[C@H]4C(=O)C(OC(C)=O)[C@@]5(C)[C@H](c6ccoc6)C[C@H]6O[C@]65[C@]4(C)[C@H](O)C[C@H]2[C@]1(C)[C@H](OC(C)=O)C[C@@H]3O (stereo not given in full)
- IC50 [6]: 16 nM

SMILES: C[C@H](CO)[C@H]1OC(=O)C=C2[C@@]13O[C@@H]3[C@H]1OC(=O)[C@@]3(C)C[C@@H](O)C[C@@]2(C)[C@@H]13
- IC50 [14]: 1400 nM
- IC50 [15]: 1700 nM
- IC50 [16]: 1400 nM

More lines, main results first:

- IC50 [3]: 38 nM
SMILES: Cc1ccccc1Cn1cc(CO[C@H]2C(=O)O[C@H]3O[C@]45C(=O)O[C@@H]6[C@H](O)[C@@H](C(C)(C)C)[C@@]32[C@@]64[C@@H](O)[C@@H]2OC(=O)[C@@H](C)[C@@]25O)nn1

- IC50 [4]: 10 nM
- IC50 [5]: 150 nM
SMILES: CC1(C)OC(=O)C[C@H](O)[C@]2(C)[C@H]3CC[C@@]4(C)[C@H](c5ccoc5)OC(=O)[C@H]5O[C@]54[C@]3(C)C(=O)C[C@@H]12

- IC50 [14]: > 50000 nM
- IC50 [15]: > 50000 nM
SMILES: C[C@H](CO[C@@H]1O[C@H](CO)[C@@H](O)[C@H](O)[C@H]1O)[C@H]1OC(=O)C=C2[C@@]13O[C@@H]3[C@H]1OC(=O)[C@@]3(C)[C@@H](O)CC[C@@]2(C)[C@@H]13
- IC50 [16]: > 50000 nM

- IC50 [19]: 250 nM
SMILES: COC(=O)[C@@]12OC[C@]34[C@H]([C@@H](O)[C@@H]1O)[C@@]1(C)CC(=O)C(O)=C(C)[C@@H]1C[C@H]3OC(=O)[C@H](OC(=O)/C=C(\C)C(C)(C)O)[C@@H]24

- IC50 [19]: 99 nM
SMILES: COC(=O)[C@@]12OC[C@]34[C@H]([C@@H](O)[C@@H]1O)[C@@]1(C)CC(=O)C(O)=C(C)[C@@H]1C[C@H]3OC(=O)[C@H](OC(C)=O)[C@@H]24 [BRUCEINE B]

- IC50 [8]: > 10000 nM
SMILES: COC(=O)[C@@]12OC[C@]34[C@H]([C@@H](O)[C@@H]1O)[C@@]1(C)C=C(O[C@@H]5O[C@H](CO)[C@@H](O)[C@H](O)[C@H]5O)C(=O)[C@@H](C)[C@@H]1C[C@H]3OC(=O)[C@H](OC(=O)/C=C(\C)C(C)C)[C@@H]24
- IC50 [7]: > 10000 nM
